The source of these data is patent US9796760B2, “Modified peptide, CB receptor ligand, kit in vitro process for evaluating CB receptor bonds, uses, pharmaceutical composition for modulating CB receptor activity” (Proteimax Biotecnologia Ltda, priority 2012, dated 2017).

Entries after “also recorded” stand apart in the source; their conditions may differ. No end group written: not given here.

The subject of one series is CB2 receptor. As to the kind of experiment: ELISA with striate membranes for CB2 receptor, receptor activating percentage vs non-treated membrane. Type of series: biochemical. The settings on record: striate membranes 5 μg/pool, 1 μM of each drug, 2 hours, ambient temperature. As for the experimental part:
(§1) The receptor activating percentage was calculated regarding the control, non-treated membrane (100%). […] Significant differences are indicated and p<0.05.
Background: An ELISA detects its analyte on a solid surface through an enzyme-linked reagent.

Series [1] can be described thus: Activity on oral administration (statement, no separate method). The series is classed as in vivo, mammalian.
The target of series [2] is CB1 receptor (Homo sapiens, UniProt P21554). The conditions noted are these: disclosed in WO 2011/011847; cited from earlier work.
CB1 receptor (Homo sapiens, UniProt P21554), sequence (P21554 whole entry): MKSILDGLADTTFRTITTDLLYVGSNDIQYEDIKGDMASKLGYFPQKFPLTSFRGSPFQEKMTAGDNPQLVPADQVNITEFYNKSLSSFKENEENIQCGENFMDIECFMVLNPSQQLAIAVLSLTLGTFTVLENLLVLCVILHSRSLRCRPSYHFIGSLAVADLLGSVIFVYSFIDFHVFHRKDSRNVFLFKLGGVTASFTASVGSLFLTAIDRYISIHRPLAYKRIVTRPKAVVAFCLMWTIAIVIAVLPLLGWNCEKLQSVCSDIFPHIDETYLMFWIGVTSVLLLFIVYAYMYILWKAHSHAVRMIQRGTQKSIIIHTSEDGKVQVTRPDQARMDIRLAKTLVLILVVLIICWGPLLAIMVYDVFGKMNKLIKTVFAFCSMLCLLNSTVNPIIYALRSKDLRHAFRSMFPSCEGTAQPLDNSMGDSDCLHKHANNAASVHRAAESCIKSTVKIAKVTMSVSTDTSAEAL
The conditions of series [3]: prior art statement; cited from earlier work.
Series [4] in a line: Pain test: carrageenan-induced hyperalgesia, intraplantar administration. The series is classed as in vivo, Rats. The settings on record: 20 g by leg, immediately before carrageenan 200 g by leg, 0 h and 3 h. As for the experimental part: It was performed the comparative analysis of the peptide intraplantar administration over the carrageenan-induced hyperalgesia. Rats were treated with peptide ([…]) immediately before the carrageenan intraplantar administration ([…]) and were evaluated using a pressure apparatus […] (0 h and empty legs) and 3 h after administration of carrageenan (black legs).

Series [5] is described as follows: Depression model (forced swim). The conditions noted are these: rats. The series is classed as in vivo. As for the experimental part: The forced swim test was performed based on the previous tests ([Harkin et al., 2004], [Petit-Demouliere et al., 2005] and [Treit and Menard, 1998]).
The test system of series [6] is CB1 receptor. Briefly: ELISA with striate membranes and anti-CB1 antibody, receptor activating percentage vs non-treated membrane. The conditions noted are these: 2 hours; for activity regarding the CB1 (receptor activating percentage regarding control): striate membranes 5 μg/pool, 1 μM of each drug, ambient temperature, variants compared with SeqID:1. Type of series: biochemical. As for the experimental part: as §1

Series [7] is described as follows: Test in brown adipose tissue, 3 days oral treatment. The series is classed as in vivo, Thin wistar rats. As for the experimental part: (§2) Furthermore, in a treatment acute model (3 days of treatment orally in non-obese wistar rats) it was verified the brown adipose tissue activation, the retroperitoneal, inguinal and brown adipose tissues reduction, as well the adiposity ratio (FIGS. 4 to 9), effects not observed with Rimonabant.
The measure of the adipose tissue was performed after finishing the treatment. The results are expressed by the brown adipose tissue weight measured at the treatment end (scale of g/100 g). Rats administered with vehicle (saline) were subject to the same protocol (control).

The nature of series [8]: Test in inguinal adipose tissue, 3 days oral treatment. The series is classed as in vivo, Thin wistar rats. The conditions noted are these: 100 ug/Kg, 3 days orally, vs Rimonabant and/or saline groups. As for the experimental part: as §2
The measure of the adipose tissue was performed after finishing the treatment. The results are expressed by the inguinal adipose tissue weight measured at the treatment end (scale of g/100 g). Rats administered with vehicle (saline) were subject to the same protocol (control).

Series [9] in a line: Adiposity ratio determination, 3 days oral treatment. The series is classed as in vivo, Thin wistar rats. The conditions noted are these: 100 ug/Kg, 3 days orally, vs Rimonabant and/or saline groups. As for the experimental part: as §2
Thin wistar rats were treated with a Rimonabant dosage (100 ug/Kg) or peptide 19 (Pep 19 100 ug/Kg) during 3 days orally. The measure of the adiposity ratio was performed after finishing the treatment using the formula (%), (I=Σ fat deposits/body weight×100). The results are expressed by the animal weight measured at the treatment end (scale of g/100 g). Rats administered with vehicle (saline) were subject to the same protocol (control).

Series [10] can be described thus: Test in retroperitoneal adipose tissue, 3 days oral treatment. The series is classed as in vivo, Thin wistar rats. The conditions noted are these: 100 ug/Kg, 3 days orally, vs Rimonabant and/or saline groups. As for the experimental part: as §2
The measure of the adipose tissue was performed after finishing the treatment. The results are expressed by the retroperitoneal adipose tissue weight measured for treatment purpose (scale of g/100 g). Rats administered with vehicle (saline) were subject to the same protocol (control).

The nature of series [11]: Cholesterol in animals supplemented with 20% sucrose, 30 days-treatment. Type of series: in vivo, Wistar rats. The settings on record: Rimonabant (positive control, dose not given), after 30 days-treatment. As for the experimental part:
Wistar rats fed with standard regimen supplemented with 20% sucrose were used in the drinking water during 60 days before and during the 30 days-treatment with SALINE (negative control), Rimonabant (positive control), Peptide 19 (Pep 19) in the concentration of 50 μg/Kg and Peptide 19 (Pep 19) in the concentration of 100 μg/Kg.

Series [12] is described as follows: Glucose in animals supplemented with 20% sucrose, 30 days-treatment. The series is classed as in vivo, Winstar rats. The settings on record: Rimonabant (positive control, dose not given), 15th and 30th days of treatment. As for the experimental part:
Winstar rats fed with standard regimen supplemented with 20% sucrose were used in the drinking water during 60 days before and during the 30 days-treatment with SALINE (negative control), Rimonabant (positive control), Peptide 19 (Pep 19) in the concentration of 50 μg/Kg and Peptide 19 (Pep 19) in the concentration of 100 μg/Kg.

In the case of DILADDEPLT [Modified peptide 2], in the series on CB2 receptor (listed as SeqID:2), the “activity in CB2 (receptor activating percentage regarding control)” value is on record as “inverse agonist”. In addition, in [1], the “activity when administered orally” value is on record as “has activity even when administered orally”.
In the case of `CC(C)C[C@H](NC(=O)[C@H](Cc1ccccc1)NC(=O)[C@H](CCCCN)NC(=O)[C@H](Cc1ccccc1)NC(=O)[C@H](CC(N)=O)NC(=O)[C@@H](NC(=O)[C@@H]1CCCN1)C(C)C)C(=O)N[C@@H](CO)C(=O)N[C@@H](Cc1cnc[nH]1)C(=O)O` [hemopressin], the “binding to the CB1 receptor” value on CB1 receptor [2] is on record as “binding efficiently”. Also, the “crossing the hematoencephalic barrier” value in series [3] was “does not cross the hematoencephalic barrier”. In addition, the antihyperalgesic activity result in series [4] is “antihyperalgesic activity”.
Turning to “DIIADDEPLT [Modified peptide 1, Asp-Ile-Ile-Ala-Asp-Asp-Glu-Pro-Leu-Thr]”, in series [5], the “depression in forced swim test (immobility time)” value is on record as “does not cause depression”.
As for DIIADDAPLT [Modified peptide 3], the “activity when administered orally” value in series [1] is recorded as “has activity even when orally administered”. The “activity regarding the CB1 (receptor activating percentage regarding control)” value in the series on CB1 receptor [6] (listed as SeqID:3) was “smaller activity”.
With “Cyclic Peptide -Asp-Ile-Ile-Ala-Asp-Asp-Glu-Pro-Leu-Thr- (DIIADDEPLT; cyclic; Artificial cyclic peptide modulator of cannabinoid receptors) [Modified peptide 6]”, in [1], the “activity when administered orally” value is “has activity even when orally administered”.
DIIADDEALT [Modified peptide 5]: in series [1], the “activity when administered orally” value is given as “has activity even when orally administered”. For the same compound, in the series on CB1 receptor [6] (different dosages of drug, high dosages, listed as SeqID:5), the “activity in CB1 / endocannabinoid receptors in high dosages” value is recorded as “agonist activity”. Moreover, the “activity in CB1 / endocannabinoid receptors in low dosages” value with CB1 receptor [6] (different dosages of drug, low dosages, listed as SeqID:5) is listed as “activity inverse agonist”.
For “third amino acid of the SeqID:1 (isoleucine amino acid) was replaced for threonine: sequence wherein the third amino acid of the SeqID:1 (isoleucine) was replaced for threonine (DITADDEPLT; Artificial peptide modulator of cannabinoid receptors)”, the “activity in CB2 (receptor activating percentage regarding control)” value in the series with CB2 receptor was “have not demonstrated activity detectable”. In the series on CB1 receptor [6], the “activity regarding the CB1 (receptor activating percentage regarding control)” value was “biological activity loss; also recorded: have not demonstrated activity detectable”.
On to `Cc1c(C(=O)NN2CCCCC2)nn(-c2ccc(Cl)cc2Cl)c1-c1ccc(Cl)cc1` [Rimonabant], for which the “brown adipose tissue mass” value in [7] (100 ug/Kg, 3 days orally, vs Rimonabant and/or saline groups) was “not observed”. Further, the “brown adipose tissue activation” value in series [7] (3 days of treatment orally in non-obese wistar rats) was “not observed”. Also, the “inguinal adipose tissue mass” value in series [8] was “not observed”. In series [9], the adiposity ratio result is “not observed”. In series [10], the “retroperitoneal adipose tissue mass” value is given as “not observed”. For the same compound, the “cholesterol in % from SALINE animals” value in [11] was “lower cholesterol percentages”. The “crossing the hematoencephalic barrier” value in series [3] is recorded as “crossing the hematoencenphalic layer”. The glycaemia result in [12] is “lower glycaemia”.
DIIADDE [Modified peptide 4]: the “activity when administered orally” value in series [1] was “has activity even when orally administered”. Besides, the “activity regarding the CB1 (receptor activating percentage regarding control)” value in the series with CB1 receptor [6] (listed as SeqID:4) is “improved inverse agonist activity”.
